Data set [1] can be described thus: Caco-2 permeability study (Examples 1, 2 and 4, Table 3). The format is in vitro ADME, human. The settings on record: for efflux ratio: Table 3; for Papp B→A at 150 min, 10 μg/ml / Papp A→B at 150 min, 10 μg/ml: human.
Protocol: The culture growth medium consisted of DMEM supplemented with 10% heat-inactivated FBS, 1% MEM-NEAA, 2 mM 1-glutamine, 1 mM sodium pyruvate, 50,000 units Penicillin G Sodium and 50 mg Streptomycin Sulfate (Biological Industries). The medium was replaced every other day.
Cells (passage 55-60) were seeded at density of 25×10^5 cells/cm^2 on untreated culture inserts of polycarbonate membrane with 0.4 μm pores and surface area of 1.1 cm^2. Culture inserts containing Caco-2 monolayer were placed in 12 mm transwell plates (Corning). Culture medium was replaced every other day. Transepithelial Electrical Resistance (TEER) values were measured by Millicell ERS-2 System (Millipore) a week after seeding up to experiment day (21-23 days) to ensure proliferation and differentiation of the cells. When the cells were fully differentiated and TEER values became stable (200-500 Ω·cm^2). The TEER values were compared to control inserts containing only the medium.
The experiment was initiated by replacing the medium from both sides by apical (600 μl) and basolateral (1500 μl) buffers, both warmed to 37° C. The Cells were incubated with the buffers solutions for 30 min at 37° C. on a shaker (100 cycles/min). The apical buffer was replaced by apical buffer containing 10 μg/ml of the cyclic peptides of the invention. 50 μl samples were taken from the apical side immediately at the beginning of the experiment, resulting in 550 μl apical volume during the experiment.
Permeability Coefficient (Papp) for each compound was calculated from the linear plot of drug accumulated versus time, using the following equation:
Where dq/dt is steady state appearance rate of the compound on the receiver side, Co is the initial concentration of the drug on the donor side, and A is the exposed tissue surface area (1.1 cm^2).
Transport studies were performed through the Caco-2 monolayer mounted in an Ussing-type chamber set-up with continuous trans-epithelial electrical resistance (TEER) measurements to assure TEER between 800 and 1200 Sr cm^2. HBSS supplemented with 10 mM MES and adjusted to pH 6.5 were used as transport medium in the donor compartment and pH 7.4 in the acceptor compartment. The donor solution contained the test compound.
Permeability mechanism of compounds is studied by evaluating the Papp of a compound from the apical to the basolateral (A-to-B) membrane and its Papp from the basolateral to the apical membrane (B-to-A). The A-to-B assay simulates passive and transporter-mediated permeability. The B-to-A assay is essential complementary experiment indicative of the activity of P-gp. The ratio of the A-to-B and B-to A Papps (efflux ratio) is calculated to determine the permeability mechanism.
The nature of data set [2]: Pharmacokinetic study in rats after oral administration. The settings on record: rat, oral 5 mg/kg; peptide 12 measured in plasma; 12P given as dispersed 12P SNEDDS. The data set is classed as in vivo, Wistar rats. How it is done: In Vivo Studies. Male Wistar rats (Harlan, Israel), 275-300 g in weight, were used for all surgical procedures. Animals were anesthetized for the period of surgery by intraperitoneal injection of 1 mL/kg of ketamine/xylazine solution (9:1), placed on a heated surface, and maintained at 37° C. (Harvard Apparatus Inc., Holliston, MA). An indwelling cannula was placed in the right jugular vein of each animal for systemic blood sampling, by a method described before. The cannula was tunneled beneath the skin and exteriorized at the dorsal part of the neck. After completion of the surgical procedure, the animals were transferred to cages to recover overnight (12-18 h). During this recovery period, food but not water was deprived. Throughout the experiment, free access to food was available 4 h post oral administration. Animals were randomly assigned to the different experimental groups. […] Dispersed 12P SNEDDS (5 mg/kg) was administered to the animals by oral gavage (n=3). Systemic blood samples (0.35 mL) were taken at 5 min predose, 20, 40, 60, 90, 180, 240, and 360 min postdose. To prevent dehydration, equal volumes of physiological solution were administered to the rats following each withdrawal of blood sample. Plasma was separated by centrifugation (5322 g, 10 min) and stored at −20° C. pending analysis. In the 12P pharmacokinetic study, the parent peptide, 12, was analytically determined.
Pharmacokinetic Analysis. The area under the plasma concentration-time curve (AUC) was calculated by using the trapezoidal rule with extrapolation to infinity by dividing the last measured concentration by the elimination rate constant (kel). The elimination rate constant values were determined by a linear regression analysis using the last points on the logarithmic plot of the plasma concentration versus the time curve. Pharmacokinetic parameters, such Tmax, Cmax, clearance (CL), volume of distribution (V), and bioavailability, were calculated using noncompartmental analysis.
Analytical Methods. Plasma or BBMV samples were spiked with metoprolol (1.5 μg/mL) as an internal standard. ACN was added to each sample (2:1) and vortex-mixed for 1 min. The samples were then centrifuged (14 635 g, 10 min), and the supernatant was transferred to fresh glass tubes and evaporated to dryness (Vacuum Evaporation System, Labconco, Kansas City, MO, USA). Then, the glass tubes were reconstituted in 80 μL of mobile phase and centrifuged a second time (14 635 g, 10 min). The amount of the compounds was determined using an HPLC-MS Waters 2695 Separation Module, equipped with a Micromass ZQ detector. The resulting solution was injected (10 μL) into the HPLC system. The system was conditioned as follows: for parent drug peptides (including 12), a Kinetex 2.6 μm HILIC 100 Å, 100 mm×2.1 mm column (Phenomenex, Torrance, CA, USA), an isocratic mobile phase, and an acetonitrile:water:ammonium acetate buffer 50 mM (70:10:20, v/v/v) was used; and for the prodrug peptides (including 12P), a Luna (Phenomenex) 3 μm C8 100 Å, 100 mm×2.0 mm column and an isocratic mobile phase of ACN:water supplemented with 0.1% formic acid (70:30, v/v) and a flow rate of 0.2 mL/min at 25° C. was used. The limit of quantification for all of the peptides and prodrugs was 25 ng/mL.
The pharmacokinetic in-vivo study allows a further evaluation of the prodrug concept in the whole animal. The PK studies were performed in conscious Wistar male rats. An indwelling cannula was implanted in the jugular vein 24 hours before the PK experiment to allow full recovery of the animals from the surgical procedure. Animals (n=4) received either an IV bolus dose or oral dose of the investigated compound. Blood samples (with heparin, 15 U/ml) were collected at several time points for up to 6 hours post administration and was assayed by HPLC-MS method. Non-compartmental pharmacokinetic analysis was performed using WinNonlin software.

The nature of data set [3]: Metabolic stability in rat plasma. The data set is classed as in vitro ADME. Particulars: 37° C., up to 90 minutes. How it is done: The enzymatic reactions were performed as follows: 2 mM stock solutions of the tested compounds were diluted with serum or purified brush border membrane vesicles (BBMVs) solution to a final concentration of 0.5 mM. During incubation at 37° C. samples were taken for a period of 90 minutes. The enzymatic reaction was stopped by adding 1:1 v/v of ice cold acetonitrile and centrifuge (4000 g, 10 min) before analysis. Preparation of BBMVs: The BBMVs was prepared from combined duodenum, jejunum, and upper ileum (male Wistar rats) by a Ca^++ precipitation method. Purification of the BBMVs was assayed using GGT, LAP and alkaline phosphatase as membrane enzyme markers
Peptides 12 and 12p were subjected to rat plasma and followed their degradation. Rat plasma is known to be rich with esterases.

In the next data set the target is T1, human αvβ3-integrin (Homo sapiens, UniProt P05106+P06756).
T1 construct: purchased R&D
T1 sequence (P06756 31-992 limits assumed): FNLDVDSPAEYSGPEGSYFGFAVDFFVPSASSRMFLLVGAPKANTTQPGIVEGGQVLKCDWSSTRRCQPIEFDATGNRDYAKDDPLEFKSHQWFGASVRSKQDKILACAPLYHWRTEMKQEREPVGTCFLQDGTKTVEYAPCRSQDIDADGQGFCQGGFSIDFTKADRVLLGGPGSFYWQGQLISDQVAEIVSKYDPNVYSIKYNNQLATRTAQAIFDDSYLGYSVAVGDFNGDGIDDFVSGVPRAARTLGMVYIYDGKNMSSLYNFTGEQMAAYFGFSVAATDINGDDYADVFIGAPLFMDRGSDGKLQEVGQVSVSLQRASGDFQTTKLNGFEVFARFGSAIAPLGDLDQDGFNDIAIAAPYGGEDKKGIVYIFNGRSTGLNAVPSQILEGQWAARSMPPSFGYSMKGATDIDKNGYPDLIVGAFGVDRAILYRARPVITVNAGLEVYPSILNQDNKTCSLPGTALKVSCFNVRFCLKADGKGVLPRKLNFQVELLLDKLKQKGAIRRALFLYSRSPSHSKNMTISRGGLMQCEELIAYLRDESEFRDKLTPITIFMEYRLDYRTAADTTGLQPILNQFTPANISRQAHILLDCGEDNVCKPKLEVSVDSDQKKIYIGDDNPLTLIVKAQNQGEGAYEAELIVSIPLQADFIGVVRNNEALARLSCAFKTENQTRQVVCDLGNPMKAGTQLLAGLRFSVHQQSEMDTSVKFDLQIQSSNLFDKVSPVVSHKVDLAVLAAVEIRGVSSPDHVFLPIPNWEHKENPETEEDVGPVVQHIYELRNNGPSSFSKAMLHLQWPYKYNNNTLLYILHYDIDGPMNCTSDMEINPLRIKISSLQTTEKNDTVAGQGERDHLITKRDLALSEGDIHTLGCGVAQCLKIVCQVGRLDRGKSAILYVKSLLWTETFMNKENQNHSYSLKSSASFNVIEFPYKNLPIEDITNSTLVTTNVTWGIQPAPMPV
T1 sequence (P05106 27-718 limits assumed): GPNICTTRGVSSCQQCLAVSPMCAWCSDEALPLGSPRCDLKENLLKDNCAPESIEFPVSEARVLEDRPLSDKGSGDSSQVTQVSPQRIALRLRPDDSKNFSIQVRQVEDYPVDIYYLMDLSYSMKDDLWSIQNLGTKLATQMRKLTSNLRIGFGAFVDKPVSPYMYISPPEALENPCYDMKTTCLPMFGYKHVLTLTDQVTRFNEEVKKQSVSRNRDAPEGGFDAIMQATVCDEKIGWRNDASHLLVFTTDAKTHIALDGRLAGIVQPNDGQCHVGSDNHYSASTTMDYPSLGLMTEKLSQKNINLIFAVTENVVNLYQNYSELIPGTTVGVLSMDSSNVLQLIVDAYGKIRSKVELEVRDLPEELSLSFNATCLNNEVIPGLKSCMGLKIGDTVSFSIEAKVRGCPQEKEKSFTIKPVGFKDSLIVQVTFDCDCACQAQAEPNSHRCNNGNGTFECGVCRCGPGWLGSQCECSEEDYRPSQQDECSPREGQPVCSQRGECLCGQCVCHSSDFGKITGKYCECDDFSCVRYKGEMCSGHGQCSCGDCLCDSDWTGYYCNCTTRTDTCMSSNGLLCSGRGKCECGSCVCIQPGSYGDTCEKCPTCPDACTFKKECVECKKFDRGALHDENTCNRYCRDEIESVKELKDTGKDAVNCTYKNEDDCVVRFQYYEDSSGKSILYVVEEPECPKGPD
The experiment in a line: Solid-phase integrin binding assay, αvβ3.

A further data set can be described thus: in vitro. The settings on record: human, Caco-2, pH 7.4.
The conditions of data set [4]: pH 7.4, LogD.
For data set [5] the following is noted: for Papp A→B: Caco-2, Papp (AB); for Papp B→A: Caco-2, Papp (BA).
Data set [6] is described as follows: Log D, octanol/PBS distribution coefficient. The settings on record: for logD at 1 h: pH 7.4, LogD.
Data set [7] can be described thus: Caco-2 bidirectional permeability with or without verapamil (Example 6). Particulars: human, 90 min, without verapamil; for Papp A→B at 90 min, 10 μM: Caco-2, pH 7.4, Papp (AB); for Papp B→A at 90 min, 10 μM: Caco-2, pH 7.4, Papp (BA).
In a further data set the test system is Caco-2 cells. The data set is described as above.
The mark [8] stands for this setting: Caco-2, Table 3, n = 3, read-out: Papp AB.
The mark [9] stands for this setting: Caco-2, Table 3, n = 3, read-out: Papp BA.
The mark [10] stands for this setting: pH 7.4, reported value (mean or bound).

Entries after “also recorded” stand apart in the source; their conditions may differ. Where two headings read alike, the source gives them in different places. Numbered stars: 1 amine (or outer) side, 2 acyl side, 3 side chain; on linkers, the order of the positions; unused ones are H or OH. Square brackets hold non-standard residues; d marks the D form. Peptide text beside a SMILES is read from it. X3 = CCCCCCOC(=O)N=C(NCCC[C@H](C(=O)[*:2])N(C)[*:1])NC(=O)OCCCCCC; X1 = CCCCCCOC(=O)N=C(NCCC[C@@H](N[*:1])C(=O)[*:2])NC(=O)OCCCCCC; X2 = CCCCCCOC(=O)N=C(N)NCCC[C@H](N[*:1])C(=O)[*:2]; dNMeV = CN[C@@H](C(=O)O)C(C)C; NMeA = CN[C@@H](C)C(=O)O

Turning to `CCCCCCOC(=O)N=C(NCCC[C@H]1NC(=O)[C@H](C)N(C)C(=O)[C@H](C)N(C)C(=O)[C@H](C)NC(=O)[C@H](CC(=O)OC)NC(=O)CNC1=O)NC(=O)OCCCCCC` [Peptide 23P, c(r(Hoc)2GD(OMe)A*A*A)] (cyclo(A[NMeA][NMeA][X1]GD(OMe))), the Papp A→B in data set [1] (setting [8]) amounted to 17.7 ± 5.5 nm/s. Besides, the Papp B→A in data set [1] (setting [9]) turned out to be 748 ± 204 nm/s. Besides, the efflux ratio in data set [1] (Caco-2) came out at 42.2.
In turn, `C[C@@H]1NC(=O)[C@H](CC(=O)O)NC(=O)CNC(=O)[C@H](CCCNC(=N)N)NC(=O)[C@@H](C)N(C)C(=O)[C@H](C)N(C)C1=O` [Peptide 12, c(*aRGDA*A)] gave a Kel in data set [2] of 0.04 ± 0.005 min⁻¹. In data set [1] (Caco-2, Table 3, n = 3), this molecule yielded a Papp B→A at 150 min, 10 μg/ml of 1.2 ± 0.1 nm/s. Further, in data set [1] (setting [8]), the Papp A→B at 150 min, 10 μg/ml amounted to 0.4 ± 0.2 nm/s. Besides, in data set [3], the “metabolic stability in rat plasma, in words” value is “remained stable”.
Molecule `C[C@@H]1NC(=O)[C@H](CC(=O)O)NC(=O)CNC(=O)[C@@H](CCCNC(=N)N)NC(=O)[C@H](C)N(C)C(=O)[C@H](C)N(C)C1=O` [Peptide 23, c(rGDA*A*A)] yielded a Papp B→A at 150 min, 10 μg/ml in [1] (Caco-2, Table 3, n = 3) of 13.4 ± 0.3 nm/s. Moreover, the Papp A→B at 150 min, 10 μg/ml in [1] (setting [8]) came out at 6.1 ± 0.9 nm/s.
Regarding `C[C@@H]1NC(=O)[C@H](CC(=O)O)NC(=O)CNC(=O)[C@H](CCCNC(=N)N)NC(=O)[C@@H](Cc2ccccc2)N(C)C(=O)[C@H](C)N(C)C1=O` [Peptide 30, c(*fRGDA*A)], the “affinity for αvβ3, in words” value at human αvβ3-integrin is reported as “subnanomolar affinity”. This molecule had an IC50 on human αvβ3-integrin (Table 1) of 0.6 ± 0.2 nM.
Consider `CCCCCCOC(=O)N=C(N)NCCC[C@@H]1NC(=O)[C@@H](C(C)C)N(C)C(=O)[C@H](C)N(C)C(=O)[C@H](C)NC(=O)[C@H](CC(=O)OC)NC(=O)CNC1=O` [#29P-Hoc] (cyclo(A[NMeA][dNMeV][X2]GD(OMe))), for which the “permeability in the PAMPA-GIT model system” value is given as “low permeability”. Also, in the data set “in vitro”, the efflux ratio at 90 min, 10 µM came out at 1. Besides, in [4] (setting [10]), the log distribution coefficient (logD) stood at 1.85. In data set [4] (pH 7.4, single determinations), this molecule came in with a logD of 1.91. Moreover, in [5] (Mean), the Papp A→B was found to be 3 nm/s and the Papp B→A was found to be 3 nm/s. In data set [5] (replicate 1), this molecule yielded a Papp A→B of 3 nm/s and a Papp B→A of 2 nm/s. In [5] (replicate 2), this molecule had a Papp A→B of 3 nm/s and a Papp B→A of 2 nm/s. For the same molecule, in data set [5] (replicate 3), the Papp A→B was 2 nm/s and the Papp B→A came out at 3 nm/s.
As to `CCCCCCOC(=O)N=C(NCCC[C@@H]1C(=O)NCC(=O)N[C@@H](CC(=O)OC)C(=O)N[C@@H](C)C(=O)N(C)[C@@H](C)C(=O)N[C@@H](C)C(=O)N1C)NC(=O)OCCCCCC` [Peptide 5P, c(*r(Hoc)2GD(OMe)A*AA)] (cyclo(A[NMeA]A[X3]GD(OMe))), the Papp B→A in [1] (setting [9]) worked out at 221 ± 35.8 nm/s; in data set [1] (Caco-2, running text, unit inferred, read-out: Caco-2 B-to-A Papp), 212 nm/s. Further, the Papp A→B in [1] (Caco-2, unit inferred, read-out: Caco-2 A-to-B Papp (converted)) is 6 nm/s. Also, in data set [1] (Caco-2), the efflux ratio stood at 36.7.
With `CCCCCCOC(=O)N=C(NCCC[C@@H]1NC(=O)[C@H](C(C)C)N(C)C(=O)[C@@H](Cc2ccccc2)NC(=O)[C@H](CC(=O)OC)NC(=O)CNC1=O)NC(=O)OCCCCCC` [Cil.-P, c(f*VR(Hoc)2GD)], the “Permeability, replicate 1” value (PAMPA, pH 7.4) was “Outlier −8.1 Log10[10^−6 cm/s]”. In addition, the efflux ratio at 90 min, 10 µM in the data set “in vitro” was determined as 1.1. In addition, the logD in data set [4] (setting [10]) is 3.95; in [4] (pH 7.4, single determinations) it was 3.76. Also, the Papp A→B in [5] (Mean) is 3 nm/s; in [5] (replicate 1), 6 nm/s; in data set [5] (replicate 2), 2 nm/s; in data set [5] (replicate 3) it was 2 nm/s. Moreover, the Papp B→A in [5] (Mean) was 3 nm/s; in data set [5] (replicate 1), 4 nm/s; in data set [5] (replicate 2), 3 nm/s; in data set [5] (replicate 3) it was 3 nm/s.
For `C[C@@H]1NC(=O)[C@H](C)N(C)C(=O)[C@H](C)NC(=O)[C@H](CC(=O)O)NC(=O)CNC(=O)[C@@H](CCCNC(=N)N)N(C)C1=O` [Peptide 5, c(*rGDA*AA)], the Papp A→B at 150 min, 10 μg/ml was 3 nm/s in data set [1] (Caco-2, running text, unit inferred, read-out: Caco-2 A-to-B Papp) and 3.8 ± 0.1 nm/s in data set [1] (setting [8]). In data set [1] (Caco-2, Table 3, n = 3), this molecule returned a Papp B→A at 150 min, 10 μg/ml of 4.2 ± 1.1 nm/s.
Turning to `CC(C)[C@@H]1C(=O)N[C@@H](CCCNC(=N)N)C(=O)NCC(=O)N[C@@H](CC(=O)O)C(=O)N[C@@H](C)C(=O)N(C)[C@@H](C)C(=O)N1C` [Peptide 29, c(*vRGDA*A)], the “LogD, pH 7.4, reported value (mean or bound)” value in data set [6] (octanol/PBS pH 7.4) is recorded as under −1. For the same molecule, the logD at 1 h in data set [6] (pH 7.4, reported value (mean or bound), octanol/PBS pH 7.4) is under -1; in data set [6] (pH 7.4, single determinations, octanol/PBS pH 7.4, triplicate values), -1.75. Besides, the Papp A→B at 90 min, 10 μM was 7 nm/s in data set [7] (Mean, 10 μM); 10 nm/s in data set [7] (replicate 1, 10 μM); 2 nm/s in data set [7] (replicate 2, 10 μM); 9 nm/s in [7] (replicate 3, 10 μM). In addition, the Papp B→A at 90 min, 10 μM is 3 nm/s in data set [7] (Mean, 10 μM); 3 nm/s in data set [7] (replicate 1, 10 μM); 4 nm/s in [7] (replicate 2, 10 μM); 2 nm/s in data set [7] (replicate 3, 10 μM). Also, the “Net efflux (Papp (BA) / Papp (AB)), in the presence of Verapamil” value in the data set with Caco-2 cells (verapamil 100 μM) was 0.1. In the data set on Caco-2 cells (without verapamil), the “Net efflux (Papp (BA) / Papp (AB))” value was 0.4. Besides, at human αvβ3-integrin, the “affinity for αvβ3, in words” value is recorded as “subnanomolar affinity; also recorded: subnanomolar IC50”. Besides, the Papp B→A at 150 min, 10 μg/ml in [1] (Caco-2, Table 3, n = 3) is 1.5 ± 0.1 nm/s. Besides, the Papp A→B at 150 min, 10 μg/ml in [1] (setting [8]) was found to be 0.7 ± 0.1 nm/s.

Source of the values: patent US11965041B2, “N-methylated cyclic peptides and their prodrugs” (TECHNISCHE UNIVERSITAET MUENCHEN, priority 2017, dated 2024).
